Like-named read-outs stand apart in the source and are kept apart here.
Target: Recombinant human cathepsin S (CatS) (Homo sapiens, UniProt P25774)
Experiment: Recombinant human cathepsin S (CatS) inhibition assay, fluorogenic substrate Z-Valine-Valine-Arginine-AMC;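 further: Baculovirus-expressed CatS in pH 5.0 sodium acetate buffer with DTT and NaCl, fluorescence read each minute over 20 min, inhibition derived from rate slope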

Chain of Recombinant human cathepsin S (CatS) (P25774 115-331): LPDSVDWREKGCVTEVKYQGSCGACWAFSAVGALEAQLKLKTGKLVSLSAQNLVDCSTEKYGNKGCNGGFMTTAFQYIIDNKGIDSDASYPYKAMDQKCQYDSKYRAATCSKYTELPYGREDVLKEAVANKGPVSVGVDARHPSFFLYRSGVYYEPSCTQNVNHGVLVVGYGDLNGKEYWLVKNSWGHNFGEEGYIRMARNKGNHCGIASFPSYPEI

| SMILES | IC50 (CatS IC50) [nM] | IC50 [nM] |
| --- | --- | --- |
| C[C@H]1COCCN1CCCn1nc(-c2ccc(Cl)c(C#Cc3ccc(CNCc4ccsc4)cc3)c2)c2c1CCN(S(C)(=O)=O)C2 [Example 434, 1-[4-({2-Chloro-5-[1-{3-[(3S)-3-methylmorpholin-4-yl]propyl}-5-(methylsulfonyl)-4,5,6,7-tetrahydro-1H-pyrazolo[4,3-c]pyridin-3-yl]phenyl}ethynyl)phenyl]-N-(3-thienylmethyl)methanamine] | 200 | – |
| NC(=O)C(=O)N1CCc2c(c(-c3ccc(Cl)c(C#Cc4ccc(CNCc5ccc(Cl)cc5)cc4)c3)nn2CCCN2C[C@@H]3C[C@H]2CO3)C1 [Example 435, 2-[3-(4-Chloro-3-{[4-({[(4-chlorophenyl)methyl]amino}methyl)phenyl]ethynyl}phenyl)-1-{3-[(1S,4S)-2-oxa-5-azabicyclo[2.2.1]hept-5-yl]propyl}-1,4,6,7-tetrahydro-5H-pyrazolo[4,3-c]pyridin-5-yl]-2-oxoacetamide] | – | 80 |
| CS(=O)(=O)N1CCc2c(c(-c3ccc(Cl)c(C#Cc4ccc(CNCc5ccc(Cl)cc5)c(F)c4)c3)nn2CCCN2CCOCC2)C1 [Example 436, 1-[4-({2-Chloro-5-[5-(methylsulfonyl)-1-(3-morpholin-4-ylpropyl)-4,5,6,7-tetrahydro-1H-pyrazolo[4,3-c]pyridin-3-yl]phenyl}ethynyl)-2-fluorophenyl]-N-[(4-chlorophenyl)methyl]methanamine] | – | 280 |
| CS(=O)(=O)N1CCc2c(c(-c3ccc(Cl)c(C#Cc4ccc(CNCc5ccc(Cl)cc5)cc4)c3)nn2CCCN2CCOCC2C(=O)O)C1 (stereo not shown) [Example 437, 4-{3-[3-(4-Chloro-3-{[4-({[(4-chlorophenyl)methyl]amino}methyl)phenyl]ethynyl}phenyl)-5-(methylsulfonyl)-4,5,6,7-tetrahydro-1H-pyrazolo[4,3-c]pyridin-1-yl]propyl}morpholine-3-carboxylic acid] | – | 570 |
| CS(=O)(=O)N1CCc2c(c(-c3ccc(Cl)c(C#Cc4cccc(CNCc5ccc(Cl)cc5)c4)c3)nn2CCCN2CCOCC2)C1 [Example 438, 1-[3-({2-Chloro-5-[5-(methylsulfonyl)-1-(3-morpholin-4-ylpropyl)-4,5,6,7-tetrahydro-1H-pyrazolo[4,3-c]pyridin-3-yl]phenyl}ethynyl)phenyl]-N-[(4-chlorophenyl)methyl]methanamine] | 720 | – |
| C[C@H]1COCCN1CCCn1nc(-c2ccc(Cl)c(C#Cc3cccc(CNCc4ccc(Cl)cc4)c3)c2)c2c1CCN(S(C)(=O)=O)C2 [Example 439, 1-[3-({2-Chloro-5-[1-{3-[(3S)-3-methylmorpholin-4-yl]propyl}-5-(methylsulfonyl)-4,5,6,7-tetrahydro-1H-pyrazolo[4,3-c]pyridin-3-yl]phenyl}ethynyl)phenyl]-N-[(4-chlorophenyl)methyl]methanamine] | – | 320 |
| CS(=O)(=O)N1CCc2c(c(-c3ccc(Cl)c(C#Cc4cccc(CNCc5ccc(Cl)cc5)c4)c3)nn2CCCN2C[C@@H]3C[C@H]2CO3)C1 [Example 440, 1-[3-({2-Chloro-5-[5-(methylsulfonyl)-1-{3-[(1S,4S)-2-oxa-5-azabicyclo[2.2.1]hept-5-yl]propyl}-4,5,6,7-tetrahydro-1H-pyrazolo[4,3-c]pyridin-3-yl]phenyl}ethynyl)phenyl]-N-[(4-chlorophenyl)methyl]methanamine] | 390 | – |
| CS(=O)(=O)N1CCc2c(c(-c3ccc(Cl)c(C#Cc4c[nH]cn4)c3)nn2CCCN2CCOCC2)C1 [Example 441, 3-[4-Chloro-3-(1H-imidazol-4-ylethynyl)phenyl]-5-(methylsulfonyl)-1-(3-morpholin-4-ylpropyl)-4,5,6,7-tetrahydro-1H-pyrazolo[4,3-c]pyridine] | 3060 | – |
| CS(=O)(=O)N1CCc2c(c(-c3ccc(Cl)c(C#Cc4ccc(CN5CCc6ccccc6C5)cc4)c3)nn2CCCN2CCOCC2)C1 [Example 442, 2-{[4-({2-Chloro-5-[5-(methylsulfonyl)-1-(3-morpholin-4-ylpropyl)-4,5,6,7-tetrahydro-1H-pyrazolo[4,3-c]pyridin-3-yl]phenyl}ethynyl)phenyl]methyl}-1,2,3,4-tetrahydroisoquinoline] | 300 | – |
| CS(=O)(=O)N1CCc2c(c(-c3ccc(Cl)c(C#Cc4ccc(CN5Cc6ccccc6C5)cc4)c3)nn2CCCN2CCOCC2)C1 [Example 443, 3-(4-Chloro-3-{[4-(1,3-dihydro-2H-isoindol-2-ylmethyl)phenyl]ethynyl}phenyl)-5-(methylsulfonyl)-1-(3-morpholin-4-ylpropyl)-4,5,6,7-tetrahydro-1H-pyrazolo[4,3-c]pyridine] | 690 | – |
| CS(=O)(=O)N1CCc2c(c(-c3ccc(Cl)c(C#Cc4ccc(CN[C@@H]5CCCc6ccccc65)cc4)c3)nn2CCCN2CCOCC2)C1 [Example 444, (1R)—N-{[4-({2-Chloro-5-[5-(methylsulfonyl)-1-(3-morpholin-4-ylpropyl)-4,5,6,7-tetrahydro-1H-pyrazolo[4,3-c]pyridin-3-yl]phenyl}ethynyl)phenyl]methyl}-1,2,3,4-tetrahydronaphthalen-1-amine] | – | 210 |
| CS(=O)(=O)N1CCc2c(c(-c3ccc(Cl)c(C#Cc4ccc(CN[C@@H]5Cc6ccccc6[C@@H]5O)cc4)c3)nn2CCCN2CCOCC2)C1 [Example 445, (1S,2R)-2-({[4-({2-Chloro-5-[5-(methylsulfonyl)-1-(3-morpholin-4-ylpropyl)-4,5,6,7-tetrahydro-1H-pyrazolo[4,3-c]pyridin-3-yl]phenyl}ethynyl)phenyl]methyl}amino)-2,3-dihydro-1H-inden-1-ol] | – | 200 |
| CS(=O)(=O)N1CCc2c(c(-c3ccc(Cl)c(C#Cc4cccc(CNCc5ccc(Cl)cc5)c4)c3)nn2CCCN2CCN(c3ccccc3)CC2)C1 [Example 446, 1-{3-[(2-Chloro-5-{5-(methylsulfonyl)-1-[3-(4-phenylpiperazin-1-yl)propyl]-4,5,6,7-tetrahydro-1H-pyrazolo[4,3-c]pyridin-3-yl}phenyl)ethynyl]phenyl}-N-[(4-chlorophenyl)methyl]methanamine] | 70 | – |
| CS(=O)(=O)N1CCc2c(c(-c3ccc(Cl)c(C#Cc4cccc(CNCc5ccc(Cl)cc5)c4)c3)nn2CCCN2CCN(c3ccccn3)CC2)C1 [Example 447, 1-{3-[(2-Chloro-5-{5-(methylsulfonyl)-1-[3-(4-pyridin-2-ylpiperazin-1-yl)propyl]-4,5,6,7-tetrahydro-1H-pyrazolo[4,3-c]pyridin-3-yl}phenyl)ethynyl]phenyl}-N-[(4-chlorophenyl)methyl]methanamine] | 70 | – |
| CS(=O)(=O)N1CCc2c(c(-c3ccc(Cl)c(C#Cc4ccc(Cl)cc4)c3)nn2C[C@@H](O)CN2CCC(C3CCNCC3)CC2)C1 [Example 448, (2S)-1-(4,4′-Bipiperidin-1-yl)-3-[3-{4-chloro-3-[(4-chlorophenyl)ethynyl]phenyl}-5-(methylsulfonyl)-4,5,6,7-tetrahydro-1H-pyrazolo[4,3-c]pyridin-1-yl]propan-2-ol] | – | 10 |
| NC(=O)C(=O)N1CCc2c(c(-c3ccc(Cl)c(C#Cc4ccc(CNCc5ccc(Cl)cc5)cc4)c3)nn2CCCN2CCCCC2)C1 [Example 449, 2-[3-(4-Chloro-3-{[4-({[(4-chlorophenyl)methyl]amino}methyl)phenyl]ethynyl}phenyl)-1-(3-piperidin-1-ylpropyl)-1,4,6,7-tetrahydro-5H-pyrazolo[4,3-c]pyridin-5-yl]-2-oxoacetamide] | – | 100 |
| NC(=O)C(=O)N1CCc2c(c(-c3ccc(Cl)c(C#Cc4ccc(CNCc5ccc(Cl)cc5)cc4)c3)nn2CCCN2CCC(C(N)=O)CC2)C1 [Example 450, 1-(3-{5-[Amino(oxo)acetyl]-3-(4-chloro-3-{[4-({[(4-chlorophenyl)methyl]amino}methyl)phenyl]ethynyl}phenyl)-4,5,6,7-tetrahydro-1H-pyrazolo[4,3-c]pyridin-1-yl}propyl)piperidine-4-carboxamide] | 70 | – |
| NC(=O)C(=O)N1CCc2c(c(-c3ccc(Cl)c(C#Cc4ccc(CNCc5ccc(Cl)cc5)cc4)c3)nn2CCCN2CCC3(CC2)OCCO3)C1 [Example 451, 2-{3-(4-Chloro-3-{[4-({[(4-chlorophenyl)methyl]amino}methyl)phenyl]ethynyl}phenyl)-1-[3-(1,4-dioxa-8-azaspiro[4.5]dec-8-yl)propyl]-1,4,6,7-tetrahydro-5H-pyrazolo[4,3-c]pyridin-5-yl}-2-oxoacetamide] | 100 | – |
| NC(=O)C(=O)N1CCc2c(c(-c3ccc(Cl)c(C#Cc4ccc(CNCc5ccc(Cl)cc5)cc4)c3)nn2CCCN2CCC(C(F)(F)F)CC2)C1 [Example 452, 2-[3-(4-Chloro-3-{[4-({[(4-chlorophenyl)methyl]amino}methyl)phenyl]ethynyl}phenyl)-1-{3-[4-(trifluoromethyl)piperidin-1-yl]propyl}-1,4,6,7-tetrahydro-5H-pyrazolo[4,3-c]pyridin-5-yl]-2-oxoacetamide] | – | 100 |
| NC(=O)N1CCc2c(c(-c3ccc(Cl)c(C#Cc4ccc(CNCc5ccc(Cl)cc5)cc4)c3)nn2CCCN2CCCC2)C1 [Example 453, 3-(4-Chloro-3-{[4-({[(4-chlorophenyl)methyl]amino}methyl)phenyl]ethynyl}phenyl)-1-(3-pyrrolidin-1-ylpropyl)-1,4,6,7-tetrahydro-5H-pyrazolo[4,3-c]pyridine-5-carboxamide] | 140 | – |
| NC(=O)N1CCc2c(c(-c3ccc(Cl)c(C#Cc4ccc(CNCc5ccc(Cl)cc5)cc4)c3)nn2CCCN2CCN(c3cccc[n+]3[O-])CC2)C1 [Example 454, 3-(4-Chloro-3-{[4-({[(4-chlorophenyl)methyl]amino}methyl)phenyl]ethynyl}phenyl)-1-{3-[4-(1-oxidopyridin-2-yl)piperazin-1-yl]propyl}-1,4,6,7-tetrahydro-5H-pyrazolo[4,3-c]pyridine-5-carboxamide] | – | 40 |
| NC(=O)N1CCc2c(c(-c3ccc(Cl)c(C#Cc4ccc(CNCc5ccc(Cl)cc5)cc4)c3)nn2CCCN2CCC(C(F)(F)F)CC2)C1 [Example 455, 3-(4-Chloro-3-{[4-({[(4-chlorophenyl)methyl]amino}methyl)phenyl]ethynyl}phenyl)-1-{3-[4-(trifluoromethyl)piperidin-1-yl]propyl}-1,4,6,7-tetrahydro-5H-pyrazolo[4,3-c]pyridine-5-carboxamide] | – | 40 |

From patent US20080200454A1, “CARBON-LINKED TETRAHYDRO-PYRAZOLO-PYRIDINE MODULATORS OF CATHEPSIN S” (priority 2007, published 2008)
